Results reported in patent US10849990B2 (priority 2018, dated 2020).

Columns and labels:
SPR-KO mice [1] = conditions: mouse, in vivo
SPR-KO mice [2] = assay: Tremor test in SPR-KO mice; conditions: mouse, in vivo
VL neurons = assay: In vivo spike recording of spontaneous rebound firing in SPR-KO mice; conditions: mouse

| Compound | motor problems (akinesia, gait disturbance, tremor) (SPR-KO mice [1]) | abnormal motor functions (tremor score) (SPR-KO mice [2]) | spontaneous rebound firing of VL neurons (VL neurons) |
| --- | --- | --- | --- |
| N[C@@H](Cc1ccc(O)c(O)c1)C(=O)O [L-DOPA] | ameliorated |  |  |
| CCC1(C)CC(=O)NC1=O (stereo not drawn) [ethosuximide] |  | ameliorated | reduced spontaneous rebound firing |
